These results are taken from patent US11279687B2, “Compounds and compositions for the inhibition of NAMPT” (Valo Health, Inc., priority 2010, dated 2022).

For orientation: pIC50 means −log10 of the IC50, conventionally taken in molar units.

In one assay the target is NAMPT (Homo sapiens (Human), UniProt P43490). Briefly: NAMPT biochemical inhibition assay (NMN quantified by mass spectrometry). To be noted: NAMPT biochemical inhibition; read-out: Biochem IC50.
Assay [1] relates to A2780 cells. Description: In-vitro cell proliferation assay (SRB), A2780 cells.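 Further: viable cell number read as SRB absorbance, background from media-only wells subtracted, IC50 interpolated from percent inhibition at two bracketing compound concentrations.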 It is filed as cell-based. To be noted: A2780 cells, 72 hours, SRB, read-out: A2780 IC50.
Assay [2] has as its system A2780 cells. Description: A2780 xenograft study in mice. The assay is classed as in vivo, C.B-17-Igh-1b-Prkdc^scid mice. To be noted: female SCID mice, s.c. A2780 tumors, p.o. BID for 5 or 10 days, dose selected from MTD study. As to the method:
C.B-17-Igh-1b-Prkdc^scid mice (female) were injected s.c. with 5×10^6 A2780 cells (NCI) in the left flank. 10-12 days later when tumors reached 100-200 mm3 in size, mice were randomized into treatment groups of 8 mice per group including vehicle control and reference standard groups. The compounds were formulated in 60:30:10 PEG-400:D5W: Ethanol and administered p.o., at the dose volume of 10 ml/kg BID for a duration of 5 or 10 days. The dose used for efficacy was selected from the MTD (Maximum Tolerated Dose) study. Mice were weighed and tumors measured using vernier calipers every alternate day. Tumor volume was calculated according to the formula (length×width^2)/2. All animal work was approved by the Institutional Animal Care and Use Committee of Biological Resource Centre, Singapore.

Structures are written as SMILES. pIC50: −log10 of the molar value. “Also recorded” adds a separate entry of the source. Where two headings read alike, the source gives them in different places.

NAMPT, sequence (P43490 whole entry): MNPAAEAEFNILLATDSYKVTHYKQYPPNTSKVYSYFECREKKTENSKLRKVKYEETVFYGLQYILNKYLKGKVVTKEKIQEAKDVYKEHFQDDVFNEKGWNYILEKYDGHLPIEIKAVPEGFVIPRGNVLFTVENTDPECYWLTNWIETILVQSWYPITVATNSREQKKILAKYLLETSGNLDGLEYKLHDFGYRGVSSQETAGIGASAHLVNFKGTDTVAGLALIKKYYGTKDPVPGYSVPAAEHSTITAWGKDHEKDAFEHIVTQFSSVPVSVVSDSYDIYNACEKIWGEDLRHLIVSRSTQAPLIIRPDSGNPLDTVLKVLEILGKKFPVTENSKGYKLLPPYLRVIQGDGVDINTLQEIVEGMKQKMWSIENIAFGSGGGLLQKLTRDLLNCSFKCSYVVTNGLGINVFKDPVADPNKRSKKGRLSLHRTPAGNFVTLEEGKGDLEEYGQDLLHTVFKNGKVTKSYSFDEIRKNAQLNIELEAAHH

Turning to `O=C(NCc1cccnc1)Nc1ccc(S(=O)(=O)c2ccccc2OC(F)(F)F)cc1` [1-(pyridin-3-ylmethyl)-3-(4-{[2-(trifluoromethoxy)benzene]sulfonyl}phenyl)urea], the pIC50 on NAMPT is 9.00; in the assay with A2780 cells [1] (Homo sapiens, A2780, 72 h), 8.52. Besides, the “effect on tumor growth in A2780 xenograft” value (shortened to “effect on tumor growth”) with A2780 cells [2] is recorded as “tumor regression”.

As to `O=C(NCc1ccc2nccn2c1)Nc1ccc(S(=O)(=O)c2ccccc2)cc1` [1-[4-(benzenesulfonyl)phenyl]-3-{imidazo[1,2-a]pyridin-6-ylmethyl}urea], the pIC50 in the assay on A2780 cells [1] (Homo sapiens, A2780, 72 h) is 7.48. Further, the “effect on tumor growth” value with A2780 cells [2] is listed as “delayed tumor growth”.

Consider `COc1ccc(Cl)cc1NS(=O)(=O)c1ccc(NC(=O)NCc2cccnc2)cc1` [3-{4-[(5-chloro-2-methoxyphenyl)sulfamoyl]phenyl}-1-(pyridin-3-ylmethyl)urea], for which the pIC50 on NAMPT was 9.05; with A2780 cells [1] (Homo sapiens, A2780, 72 h) it was 8.52. Moreover, the “effect on tumor growth” value in the assay on A2780 cells [2] is on record as “delayed tumor growth”.

On to `O=C(NCc1cccnc1)Nc1ccc(S(=O)(=O)c2ccc(F)cc2)cc1` [3-{4-[(4-fluorobenzene)sulfonyl]phenyl}-1-(pyridin-3-ylmethyl)urea], for which the pIC50 is 8.40 on NAMPT and 6.77 in the assay with A2780 cells [1] (Homo sapiens, A2780, 72 h). Also, the “effect on tumor growth” value in the assay with A2780 cells [2] is reported as “delayed tumor growth”.

In the case of `O=C(NCc1cccnc1)Nc1ccc(S(=O)(=O)N2CCC(N3CCOCC3)CC2)cc1` [1-{4-[4-(morpholin-4-yl)piperidine-1-sulfonyl]phenyl}-3-(pyridin-3-ylmethyl)urea], the pIC50 at NAMPT is 8.05; in the assay with A2780 cells [1] (Homo sapiens, A2780, 72 h), 7.89. Also, the “effect on tumor growth” value with A2780 cells [2] is given as “delayed tumor growth”.

For `O=C(NCc1cccnc1)Nc1ccc(S(=O)(=O)N2CC3CCC(C2)O3)cc1` [1-(4-{8-oxa-3-azabicyclo[3.2.1]octane-3-sulfonyl}phenyl)-3-(pyridin-3-ylmethyl)urea], the pIC50 in the assay on A2780 cells [1] (Homo sapiens, A2780, 72 h) was 7.54. For the same compound, the “effect on tumor growth” value in the assay on A2780 cells [2] is “tumor regression”.

On to `O=C(NCc1cccnc1)Nc1ccc(S(=O)(=O)N[C@H]2C[C@@H]3CC[C@H]2C3)cc1` [1-(4-{[(1S,2S,4R)-bicyclo[2.2.1]heptan-2-yl]sulfamoyl}phenyl)-3-(pyridin-3-ylmethyl)urea], for which the pIC50 is 8.15 on NAMPT and 7.34 with A2780 cells [1] (Homo sapiens, A2780, 72 h). For the same compound, the “effect on tumor growth” value with A2780 cells [2] was “delayed tumor growth”.

Consider `COc1cccc(NS(=O)(=O)c2ccc(NC(=O)NCc3cccnc3)cc2)c1C` [3-{4-[(3-methoxy-2-methylphenyl)sulfamoyl]phenyl}-1-(pyridin-3-ylmethyl)urea], for which the pIC50 on NAMPT was 8.70; in the assay on A2780 cells [1] (Homo sapiens, A2780, 72 h), 7.24. In the assay on A2780 cells [2], the “effect on tumor growth” value is recorded as “delayed tumor growth”.

Regarding `O=C(NCc1ccc2nccn2c1)Nc1ccc(S(=O)(=O)c2ccc(F)cc2)cc1` [1-{4-[(4-fluorobenzene)sulfonyl]phenyl}-3-{imidazo[1,2-a]pyridin-6-ylmethyl}urea], the pIC50 at NAMPT was 8.52; in the assay on A2780 cells [1] (Homo sapiens, A2780, 72 h) it was 7.54. Moreover, the “effect on tumor growth” value in the assay with A2780 cells [2] is on record as “tumor stasis; also recorded: delayed tumor growth”.

`O=C(NCc1cccnc1)Nc1ccc(S(=O)(=O)c2ccccc2)cc1` [3-[4-(benzenesulfonyl)phenyl]-1-(pyridin-3-ylmethyl)urea]: the “effect on tumor growth” value in the assay on A2780 cells [2] is “tumor stasis”.

With `C[C@@H]1CN(S(=O)(=O)c2ccc(NC(=O)NCc3ccc4nccn4c3)cc2)C[C@H](C)O1` [1-{4-[(2R,6S)-2,6-dimethylmorpholine-4-sulfonyl]phenyl}-3-{imidazo[1,2-a]pyridin-6-ylmethyl}urea], the pIC50 was 8.10 on NAMPT and 7.60 in the assay on A2780 cells [1] (Homo sapiens, A2780, 72 h). Besides, in the assay on A2780 cells [2], the “effect on tumor growth” value is “delayed tumor growth”.

On to `O=C(NCc1cccnc1)Nc1ccc(S(=O)(=O)Nc2cccc3ccccc23)cc1` [1-{4-[(naphthalen-1-yl)sulfamoyl]phenyl}-3-(pyridin-3-ylmethyl)urea], for which the pIC50 on NAMPT is 9.00; in the assay with A2780 cells [1] (Homo sapiens, A2780, 72 h), 7.72. Moreover, the “effect on tumor growth” value in the assay on A2780 cells [2] is “delayed tumor growth”.

`COc1cc(Cl)c(C)cc1NS(=O)(=O)c1ccc(NC(=O)NCc2cccnc2)cc1` [3-{4-[(4-chloro-2-methoxy-5-methylphenyl)sulfamoyl]phenyl}-1-(pyridin-3-ylmethyl)urea]: the negative-log IC50 (pIC50) at NAMPT was 9.00; in the assay on A2780 cells [1] (Homo sapiens, A2780, 72 h), 8.22. In addition, in the assay with A2780 cells [2], the “effect on tumor growth” value is on record as “tumor stasis”.

Turning to `O=C(NCc1ccc2nccn2c1)Nc1ccc(S(=O)(=O)N2CCC(N3CCOCC3)CC2)cc1` [3-{imidazo[1,2-a]pyridin-6-ylmethyl}-1-{4-[4-(morpholin-4-yl)piperidine-1-sulfonyl]phenyl}urea], the pIC50 was 8.40 at NAMPT and 8.30 with A2780 cells [1] (Homo sapiens, A2780, 72 h). In addition, the “effect on tumor growth” value in the assay with A2780 cells [2] is reported as “delayed tumor growth”.

As to `C[C@@H]1CN(S(=O)(=O)c2ccc(NC(=O)NCc3cccnc3)cc2)C[C@H](C)O1` [3-{4-[(2R,6S)-2,6-dimethylmorpholine-4-sulfonyl]phenyl}-1-(pyridin-3-ylmethyl)urea], the pIC50 with A2780 cells [1] (Homo sapiens, A2780, 72 h) is 8.05. Besides, in the assay with A2780 cells [2], the “effect on tumor growth” value is recorded as “delayed tumor growth”.

Consider `O=C(NCc1cccnc1)Nc1ccc(S(=O)(=O)Nc2ccccc2N2CCCC2)cc1` [3-(pyridin-3-ylmethyl)-1-(4-{[2-(pyrrolidin-1-yl)phenyl]sulfamoyl}phenyl)urea], for which the pIC50 at NAMPT is 7.89; in the assay on A2780 cells [1] (Homo sapiens, A2780, 72 h), 7.96.

As for `COc1cccc(S(=O)(=O)c2ccc(NC(=O)NCc3cccnc3)cc2)c1F` [3-{4-[(2-fluoro-3-methoxybenzene)sulfonyl]phenyl}-1-(pyridin-3-ylmethyl)urea], the negative logarithm of the IC50 (pIC50) on NAMPT is 9.00; with A2780 cells [1] (Homo sapiens, A2780, 72 h) it was 6.41.

On to `Cn1c(S(=O)(=O)c2ccc(NC(=O)NCc3cccnc3)cc2)cc2ccccc21` [3-[4-(1-methyl-1H-indole-2-sulfonyl)phenyl]-1-(pyridin-3-ylmethyl)urea], for which the pIC50 on NAMPT is 8.52; in the assay with A2780 cells [1] (Homo sapiens, A2780, 72 h) it was 7.20.

With `O=C(Nc1nc(-c2cccnc2)cs1)c1ccc(S(=O)(=O)N2CCc3ccccc3C2)cc1` [N-[4-(pyridin-3-yl)-1,3-thiazol-2-yl]-4-(1,2,3,4-tetrahydroisoquinoline-2-sulfonyl)benzamide], the pIC50 is 4.95 on NAMPT and 5.58 in the assay on A2780 cells [1] (Homo sapiens, A2780, 72 h).

As for `CCN(CC)C(=O)c1ccc(F)c(S(=O)(=O)c2ccc(NC(=O)NCc3cccnc3)cc2)c1` [N,N-diethyl-4-fluoro-3-[(4-{[(pyridin-3-ylmethyl)carbamoyl]amino[benzene)sulfonyl]benzamide], the results for the pIC50 at NAMPT and with A2780 cells [1] were 8.62 and 7.05, respectively.

In the case of `Cc1ccc(Cl)c(NS(=O)(=O)c2ccc(NC(=O)NCc3cccnc3)cc2)c1` [3-{4-[(2-chloro-5-methylphenyl)sulfamoyl]phenyl}-1-(pyridin-3-ylmethyl)urea], the pIC50 at NAMPT was 9.52; with A2780 cells [1] (Homo sapiens, A2780, 72 h) it was 8.05. Also, the “effect on tumor growth” value in the assay with A2780 cells [2] was “delayed tumor growth”.

Take `O=C(NCc1cccnc1)Nc1ccc(S(=O)(=O)c2ccccc2)nc1` [1-[6-(benzenesulfonyl)pyridin-3-yl]-3-(pyridin-3-ylmethyl)urea]: the pIC50 on NAMPT was 7.82; in the assay on A2780 cells [1] (Homo sapiens, A2780, 72 h), 5.63.

Take `COc1ccc(C(F)(F)F)cc1NS(=O)(=O)c1ccc(NC(=O)NCc2cccnc2)cc1` [3-(4-{[2-methoxy-5-(trifluoromethyl)phenyl]sulfamoyl}phenyl)-1-(pyridin-3-ylmethyl)urea]: the pIC50 at NAMPT is 10.00; with A2780 cells [1] (Homo sapiens, A2780, 72 h), 8.70. The “effect on tumor growth” value in the assay on A2780 cells [2] is on record as “delayed tumor growth”.

`O=C(NCc1cccnc1)Nc1ccc(S(=O)(=O)N(Cc2ccccc2)Cc2ccccc2)cc1` [1-[4-(dibenzylsulfamoyl)phenyl]-3-(pyridin-3-ylmethyl)urea]: the pIC50 on NAMPT is 9.10; in the assay with A2780 cells [1] (Homo sapiens, A2780, 72 h) it was 9.52.

Regarding `O=C(NCc1ccc2nccn2c1)Nc1ccc(S(=O)(=O)N2CC3CCC(C2)O3)cc1` [3-{imidazo[1,2-a]pyridin-6-ylmethyl}-1-(4-{8-oxa-3-azabicyclo[3.2.1]octane-3-sulfonyl}phenyl)urea], the pIC50 was 8.10 at NAMPT and 8.22 in the assay on A2780 cells [1] (Homo sapiens, A2780, 72 h).

For the compound `CCNC(=O)c1cccc(S(=O)(=O)c2ccc(NC(=O)NCc3cccnc3)cc2)c1` [N-ethyl-3-[(4-{[(pyridin-3-ylmethyl)carbamoyl]amino[benzene)sulfonyl]benzamide], the pIC50 on NAMPT was 8.17; with A2780 cells [1] (Homo sapiens, A2780, 72 h) it was 6.00 to 7.00.

In the case of `COc1ccccc1S(=O)(=O)c1ccc(NC(=O)NCc2cccnc2)cc1` [3-{4-[(2-methoxybenzene)sulfonyl]phenyl}-1-(pyridin-3-ylmethyl)urea], the negative-log IC50 (pIC50) at NAMPT is 8.70; in the assay with A2780 cells [1] (Homo sapiens, A2780, 72 h) it was 8.00.

Take `COCC1CCN(S(=O)(=O)c2ccc(NC(=O)NCc3cccnc3)cc2)CC1` [3-{4-[4-(methoxymethyl)piperidine-1-sulfonyl]phenyl}-1-(pyridin-3-ylmethyl)urea]: the pIC50 is 7.66 on NAMPT and 6.89 in the assay on A2780 cells [1] (Homo sapiens, A2780, 72 h).

Consider `O=C(NCc1cccnc1)Nc1ccc(S(=O)(=O)c2ccccc2CN2CCOCC2)cc1` [1-(4-{[2-(morpholin-4-ylmethyl)benzene]sulfonyl}phenyl)-3-(pyridin-3-ylmethyl)urea], for which the pIC50 on NAMPT is 8.44; in the assay on A2780 cells [1] (Homo sapiens, A2780, 72 h) it was 8.10.

With `Cc1cccc(C)c1S(=O)(=O)c1ccc(NC(=O)NCc2cccnc2)cc1` [3-{4-[(2,6-dimethylbenzene)sulfonyl]phenyl}-1-(pyridin-3-ylmethyl)urea], the pIC50 was 8.10 on NAMPT and 6.41 in the assay with A2780 cells [1] (Homo sapiens, A2780, 72 h).
